Assay results as given in ChEMBL document CHEMBL1152299, “Indazole-based liver X receptor (LXR) modulators with maintained atherosclerotic lesion reduction activity but diminished stimulation of hepatic triglyceride synthesis” (J Med Chem, 2008).
Active and inactive are the calls of the source. The rule behind the calls is not given here.

Tests used:
[1] = biological target: T1, Oxysterols receptor LXR-beta (Homo sapiens, UniProt P55055); experiment: Agonist activity at human recombinant LXRbeta ligand binding domain in human HuH7 cells co-transfected with fused Gal4-DBD by transactivation assay; format: cell-based, Huh-7
T1 sequence (P55055 whole entry): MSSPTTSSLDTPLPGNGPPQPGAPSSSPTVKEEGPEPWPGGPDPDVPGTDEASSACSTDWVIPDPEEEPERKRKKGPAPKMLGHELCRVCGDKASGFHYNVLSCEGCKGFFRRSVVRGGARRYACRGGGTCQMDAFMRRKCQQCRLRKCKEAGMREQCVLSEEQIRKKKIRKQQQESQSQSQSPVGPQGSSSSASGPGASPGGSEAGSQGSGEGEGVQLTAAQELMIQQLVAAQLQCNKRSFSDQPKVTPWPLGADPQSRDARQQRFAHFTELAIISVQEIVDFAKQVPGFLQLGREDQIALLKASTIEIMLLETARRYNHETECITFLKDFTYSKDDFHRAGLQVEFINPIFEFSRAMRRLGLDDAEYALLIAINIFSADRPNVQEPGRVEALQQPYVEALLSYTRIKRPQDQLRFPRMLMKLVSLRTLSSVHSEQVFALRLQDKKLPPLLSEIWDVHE

HepG2 = experiment: Effect on triglyceride accumulation in human HepG2 cells; format: functional, cell-based
Androgen receptor = biological target: T2, Androgen receptor (Homo sapiens, UniProt P10275); experiment: (§1) Displacement of radiolabeled mibolerone from human androgen receptor by filter paper assay
T2 sequence (P10275 whole entry): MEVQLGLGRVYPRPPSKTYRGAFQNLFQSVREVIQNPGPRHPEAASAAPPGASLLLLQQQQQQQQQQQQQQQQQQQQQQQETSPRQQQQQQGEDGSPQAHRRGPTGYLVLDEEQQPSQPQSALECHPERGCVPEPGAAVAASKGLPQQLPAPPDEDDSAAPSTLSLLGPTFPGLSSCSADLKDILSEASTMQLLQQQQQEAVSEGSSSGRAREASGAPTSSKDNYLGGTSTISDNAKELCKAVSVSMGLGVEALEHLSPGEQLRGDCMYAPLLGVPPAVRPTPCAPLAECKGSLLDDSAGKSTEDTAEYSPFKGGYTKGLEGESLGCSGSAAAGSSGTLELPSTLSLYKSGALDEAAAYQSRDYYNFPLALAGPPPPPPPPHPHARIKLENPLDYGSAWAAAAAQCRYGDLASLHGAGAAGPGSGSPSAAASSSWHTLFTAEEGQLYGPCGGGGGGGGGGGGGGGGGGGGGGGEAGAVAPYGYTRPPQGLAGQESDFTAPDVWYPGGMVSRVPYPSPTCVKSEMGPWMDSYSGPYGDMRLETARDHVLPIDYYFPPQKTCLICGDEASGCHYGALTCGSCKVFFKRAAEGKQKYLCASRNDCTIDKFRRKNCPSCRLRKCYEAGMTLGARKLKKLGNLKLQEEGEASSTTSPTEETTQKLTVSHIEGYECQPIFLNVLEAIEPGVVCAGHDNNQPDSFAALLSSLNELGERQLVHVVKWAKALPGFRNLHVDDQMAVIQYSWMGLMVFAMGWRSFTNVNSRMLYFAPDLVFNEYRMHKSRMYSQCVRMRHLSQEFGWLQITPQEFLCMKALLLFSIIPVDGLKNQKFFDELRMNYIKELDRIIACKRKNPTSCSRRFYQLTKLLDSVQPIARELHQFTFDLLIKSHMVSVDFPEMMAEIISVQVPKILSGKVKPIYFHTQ

[2] = biological target: T3, Mineralocorticoid receptor (Homo sapiens, UniProt P08235); experiment: Displacement of radiolabeled aldosterone from human mineralocorticoid receptor by filter paper assay
T3 sequence (P08235 whole entry): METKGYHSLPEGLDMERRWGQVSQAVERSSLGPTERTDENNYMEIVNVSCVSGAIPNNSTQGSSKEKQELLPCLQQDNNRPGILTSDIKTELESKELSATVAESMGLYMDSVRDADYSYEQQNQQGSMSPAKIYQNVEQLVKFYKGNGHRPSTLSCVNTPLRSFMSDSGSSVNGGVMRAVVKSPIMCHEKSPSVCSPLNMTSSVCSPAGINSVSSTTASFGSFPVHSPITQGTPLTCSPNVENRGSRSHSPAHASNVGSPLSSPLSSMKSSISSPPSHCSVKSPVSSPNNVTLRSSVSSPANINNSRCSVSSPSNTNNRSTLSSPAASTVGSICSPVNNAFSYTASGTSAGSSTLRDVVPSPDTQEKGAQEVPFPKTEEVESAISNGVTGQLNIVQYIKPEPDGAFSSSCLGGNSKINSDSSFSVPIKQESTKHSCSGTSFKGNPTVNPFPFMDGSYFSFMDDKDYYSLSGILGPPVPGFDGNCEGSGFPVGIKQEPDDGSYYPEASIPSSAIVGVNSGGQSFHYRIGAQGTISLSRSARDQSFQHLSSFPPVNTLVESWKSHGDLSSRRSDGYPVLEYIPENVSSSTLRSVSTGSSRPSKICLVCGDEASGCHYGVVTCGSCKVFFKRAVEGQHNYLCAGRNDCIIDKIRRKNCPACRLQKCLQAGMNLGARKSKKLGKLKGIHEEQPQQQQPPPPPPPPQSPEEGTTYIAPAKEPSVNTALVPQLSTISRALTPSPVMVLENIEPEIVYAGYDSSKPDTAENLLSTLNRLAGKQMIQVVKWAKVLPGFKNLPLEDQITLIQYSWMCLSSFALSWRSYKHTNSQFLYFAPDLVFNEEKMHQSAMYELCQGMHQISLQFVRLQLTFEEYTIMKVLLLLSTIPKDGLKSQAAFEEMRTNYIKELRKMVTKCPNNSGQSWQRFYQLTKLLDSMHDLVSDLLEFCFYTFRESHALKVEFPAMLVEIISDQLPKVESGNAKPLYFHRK

Mus musculus [3] = experiment: Decrease in total cholesterol level in LDL receptor knockout C57BL/6 mouse plasma at 15 mg/kg administered with Western diet after 8 weeks; format: functional; set-up: scale not given: the % may be the effect or the level left
Mus musculus [4] = experiment: Upregulation of ABCA1 gene expression in LDL receptor knockout C57BL/6 mouse duodenum at 15 mg/kg administered with Western diet; format: functional; conditions: route oral
[5] = AUC (0 to infinity) in C57 mouse at 1 mg/kg, iv and 10 mg/kg, po; format: ADME, organism-based; conditions: plasma
Syrian golden hamster = experiment: Induction of FAS gene expression in golden Syrian hamster liver at 100 mg/kg administered with chow diet for 7 days measured after 2 hrs of final dose by real time PCR; format: functional, organism-based; set-up: dose 100 mg/kg; conditions: Mesocricetus auratus
[6] = Tmax in C57 mouse at 1 mg/kg, iv and 10 mg/kg, po; format: ADME, organism-based; conditions: in vivo
[7] = Half life in C57 mouse at 1 mg/kg, iv; format: ADME, organism-based; set-up: dose 1 mg/kg, route intravenous; conditions: in vivo
[8] = Bioavailability in C57 mouse at 1 mg/kg, iv and 10 mg/kg, po; format: ADME, organism-based; conditions: in vivo
[9] = biological target: T4, Androgen receptor (Homo sapiens) (UniProt P10275); experiment: as §1
T4 sequence (whole entry): T2 sequence (P10275 whole entry)

[10] = Cmax in male C57 mice after 10 mg/kg oral dose; format: ADME, organism-based; set-up: dose 10 mg/kg, route oral; conditions: C57, mouse, in vivo
[11] = Volume of distribution at steady state in C57 mouse at 1 mg/kg, iv and 10 mg/kg, po; format: ADME, organism-based; conditions: in vivo, read-out: Vdss

Row | EC50 [1] [nM] | EC50 (HepG2) [nM] | IC50 (Androgen receptor) [nM] | IC50 [2] [nM] | AUC(0-inf) [5] [ng·h/mL] | Tmax [6] [h] | half-life [7] [h] | bioavailability [8] [%] | Activity [9] | Cmax [10] [ng/mL] | Vd [11] [L/kg] | Compound | Activity (Mus musculus [3]) [%] | fold change (FC) (Mus musculus [4]) | Activity (Syrian golden hamster)
1 | 3670 | 1910 | 2300 |  |  |  |  |  |  |  |  | Fc1ccc(-c2c3cccc(C(F)(F)F)c3nn2Cc2ccc(F)cc2Cl)cc1 [LXR-623] |  |  | 
2 | 4150 | 998 |  | > 10000 | 3100 | 0.5 | 7.9 | 106 | inactive | 633 | 30.3 | Fc1ccc(-c2c3cccc(C(F)(F)F)c3nn2Cc2ccccc2F)cc1 | 10 | 2.3 | inactive
